In brackets after ≈: the same amount, converted by molar mass.
What was measured:
[1] = tested on: Mycobacterium tuberculosis; experiment: Antimycobacterial activity against Mycobacterium tuberculosis H37Rv ATCC 27294 assessed as inhibition of bacterial growth incubated for 7 days by MABA assay; type: functional; details: H37Rv ATCC 27294, 168 h, time 7 day
[2] = Cytotoxicity against African green monkey Vero cells; type: cell-based; details: chlorocebus sabaeus
[3] = Acute toxicity in BALB/c mouse assessed as mouse survival at 2 g/kg, po observed continuously for 4 hrs and each hr for next 24 hrs and at 8 hrs interval for following 7 days; type: organism-based; details: in vivo, 2000 mg/kg, 168 h, time 7 day
[4] = tested on: Mycobacterium tuberculosis; experiment: Antimycobacterial activity against Mycobacterium tuberculosis H37Rv infected in BALB/c mouse assessed as reduction in colony forming unit in lung at 25 mg/kg, po administered once daily for 5 days a week for 3 weeks (reference value: 5.35 +/- 0.17 log10CFU); type: functional
[5] = Half life in BALB/c mouse at 2.5 mg/kg, iv measured upto 24 hrs by HPLC analysis; type: ADME, organism-based; details: in vivo
[6] = Half life in BALB/c mouse at 12.5 mg/kg, po measured upto 24 hrs by HPLC analysis; type: ADME, organism-based; details: in vivo
[7] = Tmax in BALB/c mouse at 12.5 mg/kg, po measured upto 24 hrs by HPLC analysis; type: ADME, organism-based; details: in vivo
[8] = Cmax in BALB/c mouse at 2.5 mg/kg, iv measured upto 24 hrs by HPLC analysis; type: ADME, organism-based; design: route intravenous, dose 2.5 mg/kg, time <=24; details: in vivo
[9] = Cmax in BALB/c mouse at 12.5 mg/kg, po measured upto 24 hrs by HPLC analysis; type: ADME, organism-based; design: route oral, dose 12.5 mg/kg, time <=24; details: in vivo
[10] = AUC (0 to infinity) in BALB/c mouse at 2.5 mg/kg, iv measured upto 24 hrs by HPLC analysis; type: ADME, organism-based; design: route intravenous, dose 2.5 mg/kg, time <=24; details: in vivo
[11] = AUC (0 to infinity) in BALB/c mouse at 12.5 mg/kg, po measured upto 24 hrs by HPLC analysis; type: ADME, organism-based; design: route oral, dose 12.5 mg/kg, time <=24; details: in vivo
[12] = Oral bioavailability in BALB/c mouse at 12.5 mg/kg measured upto 24 hrs by HPLC analysis; type: ADME, organism-based; details: in vivo; for bioavailability: BALB/c

Work on `CC(c1ccc(Cl)cc1)N1CC2(CCN(c3nc(=O)c4cc(C(F)(F)F)cc([N+](=O)[O-])c4s3)CC2)C1` (centres undefined) yielded an MIC [1] of under 0.016 µg/mL.

Molecule `CC(c1ccc(Br)cc1)N1CC2(CCN(c3nc(=O)c4cc(C(F)(F)F)cc([N+](=O)[O-])c4s3)CC2)C1` (centres undefined) has an MIC [1] of under 0.016 µg/mL.

With `CC(c1cc(F)cc(F)c1)N1CC2(CCN(c3nc(=O)c4cc(C(F)(F)F)cc([N+](=O)[O-])c4s3)CC2)C1` (centres undefined) the MIC [1] was under 0.016 µg/mL, the CC50 [2] was over 64 µg/mL and the Activity [3] was “Non-Toxic”. For the same molecule, the Activity [4] was over 5 log10CFU, the half-life [5] was 3.25 h and the half-life [6] was 3.02 h. It also gave a Tmax [7] of 0.25 h, a Cmax [8] of 723 ng/mL and a Cmax [9] of 286 ng/mL. The AUC(0-inf) [10] was 812 ng·h/mL, the AUC(0-inf) [11] was 609 ng·h/mL and the bioavailability [12] was 15%.

`O=c1nc(N2CCC3(CC2)CN(Cc2cc(F)cc(F)c2)C3)sc2c([N+](=O)[O-])cc(C(F)(F)F)cc12` showed an MIC [1] of under 0.016 µg/mL.

Molecule `CC(c1cccc(F)c1)N1CC2(CCN(c3nc(=O)c4cc(C(F)(F)F)cc([N+](=O)[O-])c4s3)CC2)C1` (centres undefined) has an MIC [1] of under 0.016 µg/mL.

For `O=c1nc(N2CCC3(CC2)CN(Cc2ccc(C(F)(F)F)cc2)C3)sc2c([N+](=O)[O-])cc(C(F)(F)F)cc12`, the MIC [1] was under 0.016 µg/mL, the CC50 [2] was over 64 µg/mL and the Activity [3] was “Toxic”.

`CC(c1ccc(F)c(F)c1)N1CC2(CCN(c3nc(=O)c4cc(C(F)(F)F)cc([N+](=O)[O-])c4s3)CC2)C1` (centres undefined) showed an MIC [1] of under 0.016 µg/mL.

Work on `CC(c1ccc(F)cc1)N1CC2(CCN(c3nc(=O)c4cc(C(F)(F)F)cc([N+](=O)[O-])c4s3)CC2)C1` (centres undefined) yielded an MIC [1] of under 0.016 µg/mL.

For `CC(c1ccc(Cl)c(F)c1)N1CC2(CCN(c3nc(=O)c4cc(C(F)(F)F)cc([N+](=O)[O-])c4s3)CC2)C1` (centres undefined), the MIC [1] was under 0.016 µg/mL, the CC50 [2] was over 64 µg/mL and the Activity [3] was “Non-Toxic”. The Activity [4] was over 5 log10CFU, the half-life [5] was 7.5 h and the half-life [6] was 10.1 h. For the same molecule, the Tmax [7] was 0.5 h, the Cmax [8] was 709 ng/mL and the Cmax [9] was 313 ng/mL. The AUC(0-inf) [10] was 1170 ng·h/mL, the AUC(0-inf) [11] was 1940 ng·h/mL and the bioavailability [12] was 33%.

In the case of `CC(c1cc(F)c(F)c(F)c1)N1CC2(CCN(c3nc(=O)c4cc(C(F)(F)F)cc([N+](=O)[O-])c4s3)CC2)C1` (centres undefined), the MIC [1] was under 0.016 µg/mL, the CC50 [2] was over 64 µg/mL and the Activity [3] was “Non-Toxic”. The Activity [4] was over 5 log10CFU, the half-life [5] was 1.86 h and the half-life [6] was 2.08 h. For the same molecule, the Tmax [7] was 0.25 h, the Cmax [8] was 463 ng/mL and the Cmax [9] was 240 ng/mL. The AUC(0-inf) [10] was 498 ng·h/mL, the AUC(0-inf) [11] was 455 ng·h/mL and the bioavailability [12] was 18.3%.

Molecule `O=c1nc(N2CCC3(CC2)CN(Cc2ccc(F)cc2)C3)sc2c([N+](=O)[O-])cc(C(F)(F)F)cc12` has an MIC [1] of under 0.016 µg/mL.

In the case of `O=c1nc(N2CCC3(CC2)CN(Cc2cccc(F)c2)C3)sc2c([N+](=O)[O-])cc(C(F)(F)F)cc12`, the MIC [1] was under 0.016 µg/mL.

For `CC(c1ccc(OC(F)(F)F)cc1)N1CCC2(CC1)CN(c1nc(=O)c3cc(C(F)(F)F)cc([N+](=O)[O-])c3s1)C2` (centres undefined), the MIC [1] was under 0.016 µg/mL, the CC50 [2] was over 64 µg/mL and the Activity [3] was “Non-Toxic”. For the same molecule, the Activity [4] was 4.05 log10CFU.

For `O=c1nc(N2CCC3(CC2)CN(C(c2ccc(F)cc2)c2ccc(F)cc2)C3)sc2c([N+](=O)[O-])cc(C(F)(F)F)cc12`, the MIC [1] was 0.037 µg/mL (≈ 0.0614 µM).

In the case of `CC(c1ccc(F)c(Cl)c1)N1CC2(CCN(c3nc(=O)c4cc(C(F)(F)F)cc([N+](=O)[O-])c4s3)CC2)C1` (centres undefined), the MIC [1] was under 0.016 µg/mL.

With `CC(c1ccc(OC(F)(F)F)cc1)N1CC2(CCN(c3nc(=O)c4cc(C(F)(F)F)cc([N+](=O)[O-])c4s3)CC2)C1` (centres undefined) the MIC [1] was under 0.016 µg/mL, the CC50 [2] was over 64 µg/mL and the Activity [3] was “Non-Toxic”. It also gave an Activity [4] of over 5 log10CFU, a half-life [5] of 8.51 h and a half-life [6] of 6 h. It also gave a Tmax [7] of 0.25 h, a Cmax [8] of 1640 ng/mL and a Cmax [9] of 915 ng/mL. The AUC(0-inf) [10] was 2990 ng·h/mL, the AUC(0-inf) [11] was 3620 ng·h/mL and the bioavailability [12] was 24.2%.

`O=c1nc(N2CCC3(CC2)CN(Cc2ccc(OC(F)(F)F)cc2)C3)sc2c([N+](=O)[O-])cc(C(F)(F)F)cc12` showed an MIC [1] of under 0.016 µg/mL.

`CC(c1ccc(F)cc1F)N1CC2(CCN(c3nc(=O)c4cc(C(F)(F)F)cc([N+](=O)[O-])c4s3)CC2)C1` (centres undefined) gave an MIC [1] of under 0.016 µg/mL.

In the case of `CC(c1ccc(C(F)(F)F)cc1)N1CC2(CCN(c3nc(=O)c4cc(C(F)(F)F)cc([N+](=O)[O-])c4s3)CC2)C1` (centres undefined), the MIC [1] was under 0.016 µg/mL, the CC50 [2] was over 64 µg/mL and the Activity [3] was “Non-Toxic”. It also gave an Activity [4] of over 5 log10CFU, a half-life [5] of 9.29 h and a half-life [6] of 6.69 h. It also gave a Tmax [7] of 0.25 h, a Cmax [8] of 1390 ng/mL and a Cmax [9] of 1240 ng/mL. The AUC(0-inf) [10] was 2650 ng·h/mL, the AUC(0-inf) [11] was 5500 ng·h/mL and the bioavailability [12] was 41.5%.

Molecule `O=c1nc(N2CCC3(CC2)CN(Cc2ccc(Br)cc2)C3)sc2c([N+](=O)[O-])cc(C(F)(F)F)cc12` has an MIC [1] of under 0.016 µg/mL.

`NNC(=O)c1ccncc1` [ISONIAZID] gave an MIC [1] of 0.038 µg/mL (≈ 0.277 µM) and an Activity [4] of over 5 log10CFU.

With `O=c1nc(N2CCN(CC3CCCCC3)CC2)sc2c([N+](=O)[O-])cc(C(F)(F)F)cc12` [MACOZINONE] the MIC [1] was under 0.016 µg/mL, the CC50 [2] was over 64 µg/mL and the Activity [4] was over 5 log10CFU. For the same molecule, the half-life [5] was 5.14 h, the half-life [6] was 5.07 h and the Tmax [7] was 0.25 h. It also gave a Cmax [8] of 1840 ng/mL, a Cmax [9] of 734 ng/mL and an AUC(0-inf) [10] of 1540 ng·h/mL. It also gave an AUC(0-inf) [11] of 912 ng·h/mL and an F ([12]; 12.5 mg/kg, 24 h) of 11.8%.

With `CO[C@H]1/C=C/O[C@@]2(C)Oc3c(C)c(O)c4c(O)c(c(/C=N/N5CCN(C)CC5)c(O)c4c3C2=O)NC(=O)/C(C)=C\C=C\[C@H](C)[C@H](O)[C@@H](C)[C@@H](O)[C@@H](C)[C@H](OC(C)=O)[C@@H]1C` [RIFAMPIN] the MIC [1] was 0.037 µg/mL (≈ 0.045 µM).

Reference: ChEMBL document CHEMBL4680263, “Identification of benzothiazinones containing 2-benzyl-2,7-diazaspiro[3.5]nonane moieties as new antitubercular agents” (Eur J Med Chem, 2020)
